Assay results taken from patent publication US7365162B2, “Stabilized bioactive peptides and methods of identification, synthesis, and use” (priority 1998, dated 2008).
Read-outs that look alike come from different tables or passages of the source. No end group written: not given here.

Columns and labels:
[1] = test system: E. coli; type: cell-based; conditions: ALS225 cells, minimal inducing plate (M9 glycerol Amp IPTG), grid patching
[2] = test system: E. coli; assay: Growth rate analysis in liquid media of cells expressing induced peptides; type: cell-based; conditions: for % Inhibition (of the growth rate): ALS225, minimal media, 1 mM IPTG, versus induced pLAC11 vector, average of three determinations; for % inhibition versus pLAC11 control (inhibitory peptide): induced inhibitor; for % inhibition versus pLAC11 control (inhibitory peptide) / % inhibition versus pLAC11 control (antisense construct): growth rate; for % inhibition versus pLAC11 control (antisense construct): ATG start codon converted to ACG, induced
[3] = target: ATPase; conditions: read-out: Binding Constant; Inhibited Protein: ATPase; cited from earlier work
[4] = target: Calpain; conditions: Inhibited Protein: Calpain; read-out: Binding Constant; cited from earlier work
[5] = target: galanin receptor; assay: Radio immunoassay, displacement of radiolabeled galanin from its receptor; type: binding
Description: Radio immunoassays (RIAs) were performed to determine the ability of galanin and its APP derivatives to displace radiolabeled galanin from its receptor.

[6] = target: Nicotinic Acetylcholine; conditions: read-out: Binding Constant; cited from earlier work
[7] = Steif et al. 1993; cited from earlier work

Q: With “pPep19: 5 aa inhibitor peptide (SEQ ID NO:52) (MRGAN; stabilized peptide)” as the molecule, how does the “Type (one day / two day inhibitor)” value [1] read?
A: 1 Day (able to prevent the growth of the E. coli bacteria at 24 hours)

Q: What about the “% Inhibition (of the growth rate)” value [2] of the same molecule?
A: 29%

Q: And the “% inhibition versus pLAC11 control (inhibitory peptide)” value [2]?
A: 29%

Q: With “pPep17: 12 aa inhibitor peptide (SEQ ID NO:51), C-terminal proline (MLGLEATYPFNP; stabilized peptide)” as the molecule, how does the “Type (one day / two day inhibitor)” value [1] read?
A: 1 Day (able to prevent the growth of the E. coli bacteria at 24 hours)

Q: What about the “% Inhibition (of the growth rate)” value [2] of the same molecule?
A: 28%

Q: Which results are given for “pPep7: 6 aa inhibitor peptide (SEQ ID NO:40) (MYLFIG; stabilized peptide)”?
A: Type (one day / two day inhibitor) [1]: 1 Day (able to prevent the growth of the E. coli bacteria at 24 hours); % Inhibition (of the growth rate) [2]: 26%

Q: For “pPep8: 21 aa inhibitor peptide (SEQ ID NO:43) (MLLFGGDCGKAGYFTVLPSR; stabilized peptide)”, which “Type (one day / two day inhibitor)” value [1] is on record?
A: 1 Day (able to prevent the growth of the E. coli bacteria at 24 hours)

Q: And the “% Inhibition (of the growth rate)” value [2]?
A: 29%

Q: For “pPep12: 14 aa two day inhibitor peptide (SEQ ID NO:46), two prolines near the C-terminus; printed pPep22 in Table 10 (MNGRTKRIRDPPAA; stabilized peptide)”, which “Type (one day / two day inhibitor)” value [1] is on record?
A: two day

Q: What about the “Type (one day / two day inhibitor)” value ([1]; listed as pPep22) of the same molecule?
A: 2 Day (able to prevent the growth of the E. coli bacteria at 48 hours)

Q: And the “% Inhibition (of the growth rate)” value [2]?
A: 82%

Q: What about the “% inhibition versus pLAC11 control (inhibitory peptide)” value [2] of the same molecule?
A: 80%

Q: What does the source list for “pPep13: 18 aa inhibitor peptide (SEQ ID NO:48), C-terminal proline (MDREVMCAAKQEWKERTP; stabilized peptide)”?
A: Type (one day / two day inhibitor) [1]: 1 Day (able to prevent the growth of the E. coli bacteria at 24 hours); % Inhibition (of the growth rate) [2]: 28%; % inhibition versus pLAC11 control (inhibitory peptide) [2]: 28%

Q: With Myotoxin (29-42) as the molecule, how does the Kd [3] read?
A: 19000 nM

Q: For “pPep5: 16 aa inhibitor peptide encoded by clone pPep5 (SEQ ID NO:36) (MWRDSWIKGRDVGFMG; stabilized peptide)”, which “Type (one day / two day inhibitor)” value [1] is on record?
A: 1 Day (able to prevent the growth of the E. coli bacteria at 24 hours)

Q: What about the “% Inhibition (of the growth rate)” value [2] of the same molecule?
A: 24%

Q: And the “% inhibition versus pLAC11 control (inhibitory peptide)” value [2]?
A: 23%

Q: With “pPep6: 42 aa inhibitor peptide (SEQ ID NO:39); last 25 aa could form a hydrophobic membrane-spanning domain (MSGGHVTRECKSAMSNRWIYVIRILMFDSLSSISFNAVVYHS; also: stabilized peptide)” as the molecule, how does the “Type (one day / two day inhibitor)” value [1] read?
A: 1 Day (able to prevent the growth of the E. coli bacteria at 24 hours)

Q: What about the “% Inhibition (of the growth rate)” value [2] of the same molecule?
A: 27%

Q: What does the source list for “pPep10: 20 aa inhibitor peptide (SEQ ID NO:45) (MIGGSLSFAWAIVCNKNSHV; stabilized peptide)”?
A: Type (one day / two day inhibitor) [1]: 1 Day (able to prevent the growth of the E. coli bacteria at 24 hours); % Inhibition (of the growth rate) [2]: 24%

Q: With SCP (153-180) as the molecule, how does the Kd [4] read?
A: 30 nM

Q: With “galanin with the APP (Ala-Pro-Pro) motif at the amino terminus [APP-galanin]” as the molecule, how does the Ki [5] read?
A: 6.42 nM

Q: For α-Conotoxin GIA, which Kd [6] is on record?
A: 1 nM

B1: pPep13-anti: pPep13 insert recloned in pLAC11 with ATG start codon changed to ACG (SEQ ID NO:32) (nucleic acid)
DNA: TACTATAGATCTACGGACCGTGAAGTGATGTGTGCGGCAAAACAGGAATGGAAGGAACGAACGCCATAGGCCGCGTAATAAGAATTCTCGACA
modifications: expressed or natural sequence
Q: For B1, which “% inhibition versus pLAC11 control (antisense construct)” value [2] is on record?
A: 0%

B2: Rop: small 63 amino acid four-helix bundle protein from the ColEl replicon, used as stabilizing group (protein, UniProt P03051 1-63, looked up)
Regulatory protein rop: MTKQEKTALNMARFIRSQTLTLLEKLNELDADEQADICESLHDHADELYRSCLARFGDDGENL
Q: For B2, which “midpoint temperature of denaturation, Tm” value [7] is on record?
A: about 71 °C

B3: pPep5-anti: pPep5 insert recloned in pLAC11 with ATG start codon changed to ACG (SEQ ID NO:30) (nucleic acid)
DNA: TACTATAGATCTACGTGGCGGGACTCATGGATTAAGGGTAGGGACGTGGGGTTTATGGGTTAAAATAGTTTGATAATAAGAATTCTCGACA
modifications: expressed or natural sequence
Q: Which “% inhibition versus pLAC11 control (antisense construct)” value [2] does the source give for B3 here?
A: 0%

B4: pPep1-anti: pPep1 insert recloned in pLAC11 with ATG start codon changed to ACG (SEQ ID NO:29) (nucleic acid)
DNA: TACTATAGATCTACGGTCACTGAATTTTGTGGCTTGTTGGACCAACTGCCTTAGTAATAGTGGAAGGCTGAAATTAATAAGAATTCTCGACA
modifications: expressed or natural sequence
Q: With B4 as the molecule, how does the “% inhibition versus pLAC11 control (antisense construct)” value [2] read?
A: 0%

B5: pPep12-anti: pPep12 insert recloned in pLAC11 with ATG start codon changed to ACG (SEQ ID NO:31) (nucleic acid)
DNA: TACTATAGATCTACGAACGGCCGAACCAAACGAATCCGGGACCCACCAGCCGCCTAAACAGCTACCAGCTGTGGTAATAAGAATTCTCGACA
modifications: expressed or natural sequence
Q: With B5 as the molecule, how does the “% inhibition versus pLAC11 control (antisense construct)” value [2] read?
A: 0%

B6: pPep19-anti: pPep19 insert recloned in pLAC11 with ATG start codon changed to ACG (SEQ ID NO:33) (nucleic acid)
DNA: TACTATAGATCTACGAGGGGCGCCAACTAAGGGGGGGGGAAGGTATTTGTCCCGTGCATAATCTCGGGTGTTGTCTAATAAGAATTCTCGACA
modifications: expressed or natural sequence
Q: For B6, which “% inhibition versus pLAC11 control (antisense construct)” value [2] is on record?
A: 0%
